According to patent US20190255011A1, “INHIBITION OF TUMOUR CELL MIGRATION” (GW Pharma Limited, priority 2004, published 2019):

What was measured:
U87 human glioma cells [1] = test: cell migration assay with pre-treatment by CB1 and CB2 receptor antagonists; format: cell-based; conditions: antagonist 0.1 μM and 1 μM, 30 minutes pre-treatment, then CBD 6 μM
Experimental: In order to determine whether the CBD-induced inhibition of cell migration as described in Example 1 above was dependant on the stimulation of these receptors the cell migration assay was performed with specific antagonists selective to CB1 and CB2 receptors. These are SR141716A and SR144528 respectively.
U87 human glioma cells were firstly pre-treated with the antagonists for 30 minutes and then treated with the CBD for an additional 30 minutes before seeding in the upper chamber of the Boyden chamber.
The cell migration assay was performed using a CBD concentration of 6 μM (shown in Example 1 to inhibit 50% migration. The CB1 and CB2 receptor antagonists were tested at concentrations of 0.1 μM and 1 μM, at these concentrations cell viability was not affected.

[2] = tested on: U87 human glioma cells subcutaneously implanted to nude mice; conditions: cited from earlier work
[3] = tested on: U373 human glioma cell line; conditions: cited from earlier work
U87 human glioma cells [4] = test: cell viability at the concentrations used in the migration assay; format: cell-based; conditions: range of CBD concentrations used (0.01 μM to 9 μM)
U87 human glioma cells [5] = test: cell migration assay in modified Boyden chamber; format: cell-based
Experimental: Cannabidiol (CBD) in the form of a botanical drug substance was dissolved in ethanol to a concentration of 100 mM this was stored at −20° C. until required.
Before use the CBD was further diluted with tissue culture medium to the desired concentration, ensuring that the concentration of ethanol was below 0.001%.
U87 human glioma cells were used throughout this experiment. The cells were maintained at 37° C. in a humidified atmosphere with 5% CO2 and 95% air.
Cells were cultured in a 75 cm^2 culture flask in Dulbecco's Modified Eagle Medium (DMEM), which had been supplemented with 4 mM L-glutamine, 100 units/ml penicillin, […], 1% sodium pyruvate, 1% non-essential amino acids and 10% heat-inactivated fetal bovine serum.
A cell migration assay was undertaken with the U87 cells in a 48 well, modified Boyden chamber in which upper and lower compartments were separated by a polycarbonate filter with a pore diameter of 8 μm coated with 15 μg/ml of fibronectin. Conditioned medium (CM) served as a chemoattractant. The CM was made by incubating a subconfluent culture of U87 cells with complete medium for 3 days.
The coated filter was placed over the bottom chamber, which contained the conditioned medium. Serum-free medium was used as a negative control.
U87 cells were treated with either CBD or vehicle for 30 minutes and then seeded in the upper chamber at a concentration of 3×10^4 cells per well and incubated for 6 hours at 37° C.
After the incubation the non-migrated cells on the upper surface of the filter were removed by scraping and the migrated cells on the lower side of the filter were stained with Diff-Quick Stain. Between 5 and 8 unit fields per filter were counted at 400× magnification.
As is shown in FIG. 1 cells were exposed to an increased concentration of CBD in a range starting from 0.01 μM to 9 μM and their migration was evaluated after 6 hours. The degree of inhibition of cell migration is expressed as a percentage of inhibition versus vehicle treatment (maximal stimulation).

[6] = tested on: U87 human glioma cell line; conditions: cited from earlier work

Molecule | effect of antagonist pre-treatment on CBD-induced inhibition of migration (U87 human glioma cells [1]) | anti-proliferative effects in-vivo [2] | anti-proliferative effects in-vitro [3] | cell viability (U87 human glioma cells [4]) | inhibition of migration (U87 human glioma cells [5]; CBD added to culture medium of U87 cells) | inhibition at 6 µM (U87 human glioma cells [5]; Homo sapiens, Glioma cell, CBD concentration of 6 μM) [%] | IC50 (U87 human glioma cells [5]; Homo sapiens, U-87 MG, U87 cells, CBD 0.01 μM to 9 μM, migration evaluated after 6 hours, versus vehicle treatment, read-out: IC50 of inhibition of cell migration) [µM] | anti-proliferative effects in-vitro [6]
Cc1c(C(=O)NN2CCCCC2)nn(-c2ccc(Cl)cc2Cl)c1-c1ccc(Cl)cc1 [SR141716] | not prevented | – | – | – | – | – | – | –
SR144528 | not prevented | – | – | – | – | – | – | –
C=C(C)[C@@H]1CCC(C)=C[C@H]1c1c(O)cc(CCCCC)cc1O [CBD, cannabidiol] | – | anti-proliferative effects | anti-proliferative effects | did not alter cell viability | concentration-dependant inhibition of migration | 50 | 5.05 ± 1.1 | anti-proliferative effects
